From PubChem BioAssay AID1918994 (Molecular Pharmacology Branch, DTP, NCI, 2023)

Test system: 292921-168-R-J2-PDC complex spheroid growth
Assay: Anticancer human tumor 292921-168-R-J2-PDC patient-derived pancreatic carcinoma cell line growth inhibition [AhR]
Conditions: for IC50: curve of first compound; for viability, T/C: stronger effect = lower value; active = viability on the fitted dose curve at most 10% of control; inactive = the rest
Procedure, shortened: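 Spheroids combined tumor cells with HUVEC endothelial cells and human MSCs as stroma. AhR antagonists were paired with standard or investigational drugs, each dosed in half-log steps down from near clinical Cmax, or from 10 microM where Cmax was unknown.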
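Also: spheroids exposed to compounds for seven days after three days of growth.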

COc1cc(C2c3cc4c(cc3C(OC3OC5COC(C)OC5C(O)C3O)C3COC(=O)C23)OCO4)cc(OC)c1O (stereo not given) + Cc1ccccc1N=Nc1ccc(NC(=O)c2ccnn2C)c(C)c1
0.105 µM: IC50 (second compound 10 µM)
0.396 µM: IC50 (second compound 0.1 µM)
inactive: viability, T/C (second compound 0.1 µM, first compound 0.0316 µM) 92.5% | viability, T/C (second compound 0.1 µM, first compound 0.1 µM) 85.8% | viability, T/C (second compound 0.1 µM, first compound 0.316 µM) 51.6% | viability, T/C (second compound 0.1 µM, first compound 1 µM) 30.8% | viability, T/C (second compound 0.1 µM, first compound 3.16 µM) 18% | viability, T/C (second compound 0.1 µM, first compound 10 µM) 10.8% | viability, T/C (second compound 0.316 µM, first compound 0.0316 µM) 86.3% | viability, T/C (second compound 0.316 µM, first compound 0.1 µM) 71% | viability, T/C (second compound 0.316 µM, first compound 0.316 µM) 58.7% | viability, T/C (second compound 0.316 µM, first compound 1 µM) 29.9% | viability, T/C (second compound 0.316 µM, first compound 3.16 µM) 14.8% | viability, T/C (second compound 0.316 µM, first compound 10 µM) 11.7% | viability, T/C (second compound 1 µM, first compound 0.0316 µM) 75.6% | viability, T/C (second compound 1 µM, first compound 0.1 µM) 72.2% | viability, T/C (second compound 1 µM, first compound 0.316 µM) 52.3% | viability, T/C (second compound 1 µM, first compound 1 µM) 26.3% | viability, T/C (second compound 1 µM, first compound 3.16 µM) 19.2% | viability, T/C (second compound 1 µM, first compound 10 µM) 10.9% | viability, T/C (second compound 3.16 µM, first compound 0.0316 µM) 63.4% | viability, T/C (second compound 3.16 µM, first compound 0.1 µM) 60.8% | viability, T/C (second compound 3.16 µM, first compound 0.316 µM) 40.5% | viability, T/C (second compound 3.16 µM, first compound 1 µM) 25.5% | viability, T/C (second compound 3.16 µM, first compound 3.16 µM) 16.4% | viability, T/C (second compound 3.16 µM, first compound 10 µM) 9.21% | viability, T/C (second compound 10 µM, first compound 0.0316 µM) 60.8% | viability, T/C (second compound 10 µM, first compound 0.1 µM) 52.7% | viability, T/C (second compound 10 µM, first compound 0.316 µM) 27.2% | viability, T/C (second compound 10 µM, first compound 1 µM) 23.3% | viability, T/C (second compound 10 µM, first compound 3.16 µM) 18.9% | viability, T/C (second compound 10 µM, first compound 10 µM) 11.1%
0.181 µM: IC50 (second compound 3.16 µM)
0.409 µM: IC50 (second compound 0.316 µM)
0.355 µM: IC50 (second compound 1 µM)
